PMC11784013, “Potassium molybdate blocks APN-dependent coronavirus entry by degrading receptor via PIK3C3-mediated autophagy” (Journal of Virology, 2024)
Entries after “also recorded” stand apart in the source; their conditions may differ.

How the values were obtained:
[1] = system: PRCV; assay: PRCV entry assay in ST cells; type: cell-based, porcine respiratory coronavirus; settings: PM 10 mM, PRCV 0.1 MOI, 1 or 2 h at 37°C, RT-qPCR and IFA
Protocol: Fig. S4. […] (A and B) Entry assay. ST cells were infected with 0.1
MOI PRCV for 1 h at 4 °C, and were then treated with PM (10 mΜ) or H2O for 1 h or 2 h at 37 °C. The cells samples were washed using sodium citrate buffer and detected by RT-qPCR (A) and IFA (B), Scale bar: 50 μm /5 μm. Results are presented as mean ± SD of data from three independent experiments ***, (also on this page, place not known: 0.0 0.5 1.0 1.5 Relative genomic RNA level *** *** DAPIPRCV PM H2O 1h 2h 1 2 3 4 5 H2O PM Viral load (log copies/ul) *** *** 1h 2h CollectedPM/H2O) […]

[2] = system: ATG14; assay: ATG14 expression in ST cells (western blot); type: cell-based, porcine; settings: Fig. S8A, PM 10 mM, PRCV 0.1 MOI, 16 h
Protocol: Fig 7 PM degrades APN expression via activating PIK3C3-mediated autophagy. (A) Graphical representation for autophagy and the targets of different autophagy inhibitors. (B) ST cells were treated with PM (10 mM) in the presence and absence of 3-MA (20 mM), SBI0206965 (20 µM), and 3BDO (30 µM) for 16 h, and the APN expression was detected by western blot. (C) ST cells were treated with PM (10 mM) in the presence and absence of 3-MA (20 mM) for 16 h, and the APN, PIK3C3, ATG14, BECN1, P62, and LC3 were measured by western blot. (D) ST cells were transfected with PIK3C3 siRNA-1, PIK3C3 siRNA-2, PIK3C3 siRNA-3, PIK3C3 siRNA-4, and NC siRNA for 24 h, the PIK3C3 expression was detected by western blot. […] The APN, PIK3C3, ATG14, BECN1, P62, and LC3 were detected by western blot. […] (G) PIK3C3 was detected by western blot in WT ST cells and PIK3C3 KO ST cells. (H) WT ST cells and PIK3C3 KO ST cells were treated with PM (10 mM) for 16 h and then the APN, PIK3C3, ATG14, BECN1, P62, and LC3 were detected by western blot. […] The APN, PIK3C3, P62, and LC3 were detected by western blot. All western blot results were calculated by Image J. All experiments were performed in triplicate.
Fig. S8. […] Then the APN, PIK3C3, ATG14, BECN1, P62, PRCV N and LC3 were detected by western blot (A), and viral titers and PRCV N mRNA level were determined by TCID50 (B) and RT-qPCR (C) . […]

[3] = system: PEDV LJX 01/2014; assay: PEDV infection of Vero-E6 cells (TCID50, western blot); type: cell-based, porcine epidemic diarrhea virus; settings: TCID50 and western blot
Protocol: Fig 1 PM inhibits TGEV and PRCV infection in ST cells. (A) A cytotoxicity assay of PM in ST cells. ST cells cultured in a 96-well plate were incubated with different concentrations of PM for 24 h, which was tested by Cell Counting Kit 8. (B) Time course for PM inhibiting TGEV or PRCV or PEDV infection assay. (C–F) The ST cells, pretreated with PM at the indicated concentrations for 1 h were infected with TGEV Miller (0.1 MOI) or PRCV (0.1 MOI) for 1 h and were again treated with PM at 37°C for 17 h. The cell samples were collected and examined by real-time quantitative PCR (RT-qPCR), TCID50, western blot (C and D), and immunofluorescence assay (IFA) (E and F), scale bar: 50 µm. (G) Vero-E6 cells were treated with indicated PM and infected with PEDV LJX 01/2014 according to the time course of Fig. 1B, which was detected by TCID50 and western blot. Results are presented as mean ± SD of data from three independent experiments. ns, no significant; **, P ≤ 0.01; ***, P ≤ 0.001.

[4] = system: PIK3C3; assay: PIK3C3 expression in ST cells (western blot); type: cell-based, porcine; settings: PM 10 mM, 16 h; for PIK3C3 level, western blot, relative to WT without PM (=1): PRCV 0.1 MOI
Protocol: Fig 7 PM degrades APN expression via activating PIK3C3-mediated autophagy. (A) Graphical representation for autophagy and the targets of different autophagy inhibitors. (B) ST cells were treated with PM (10 mM) in the presence and absence of 3-MA (20 mM), SBI0206965 (20 µM), and 3BDO (30 µM) for 16 h, and the APN expression was detected by western blot. (C) ST cells were treated with PM (10 mM) in the presence and absence of 3-MA (20 mM) for 16 h, and the APN, PIK3C3, ATG14, BECN1, P62, and LC3 were measured by western blot. (D) ST cells were transfected with PIK3C3 siRNA-1, PIK3C3 siRNA-2, PIK3C3 siRNA-3, PIK3C3 siRNA-4, and NC siRNA for 24 h, the PIK3C3 expression was detected by western blot. (E) ST cells were transfected with PIK3C3 siRNA-4 or NC siRNA for 24 h and then treated with PM (10 mM) for 16 h. The APN, PIK3C3, ATG14, BECN1, P62, and LC3 were detected by western blot. (F) Sequencing diagram for WT ST cells and PIK3C3 KO ST cells. (G) PIK3C3 was detected by western blot in WT ST cells and PIK3C3 KO ST cells. (H) WT ST cells and PIK3C3 KO ST cells were treated with PM (10 mM) for 16 h and then the APN, PIK3C3, ATG14, BECN1, P62, and LC3 were detected by western blot. (I) WT ST cells and PIK3C3 KO ST cells were transfected with pCMV-Myc and pCMV-Myc-PIK3C3, respectively, for 24 h and treated with PM (10 mM) for 16 h. The APN, PIK3C3, P62, and LC3 were detected by western blot. All western blot results were calculated by Image J. All experiments were performed in triplicate.
Fig. S8. PM inhibits PRCV infection by degrading APN via PIK3C3-mediated autophagy. (A-C) WT ST cells and PIK3C3 KO ST cells were treated with PM (10 mM) and infected with PRCV (0.1 MOI) for 16 h. Then the APN, PIK3C3, ATG14, BECN1, P62, PRCV N and LC3 were detected by western blot (A), and viral titers and PRCV N mRNA level were determined by TCID50 (B) and RT-qPCR (C) . […] The APN, PIK3C3, P62, PRCV N and LC3 were determined by western blot (D). […]

[K+].[K+].[O]=[Mo](=[O])([O-])[O-] [PM, potassium molybdate]
PRCV entry (internalization) [1]: blocks PRCV internalization; also recorded: The same results were also demonstrated for PRCV infection | ATG14 level, western blot, relative to WT without PM (=1) ([2]; PIK3C3 KO ST cells): 1.03 | ATG14 level, western blot, relative to WT without PM (=1) ([2]; WT ST cells): 1.07 | PEDV infection [3]: unable to repress PEDV infection | PIK3C3 level, western blot, relative to WT without PM (=1) ([4]; Fig. S8A, WT ST cells): 2.83 | PIK3C3 level, western blot, relative to WT without PM (=1) ([4]; Fig. S8D, WT ST cells with pCMV-Myc): 1.73 | PIK3C3 expression ([4]; ST cells, western blot): activated PIK3C3 expression
